According to patent US20240018145A1, “[…]-DEPENDENT EN[…] TREATING OR […]” (priority 2020, published 2024):

Test system: FLU A (PR/8/34)
Experiment: Flu A Neuraminidase Antiviral Assay
Format: cell-based

| Compound | EC50 |
| --- | --- |
| Cc1ccccc1C1C(CC(F)(C(F)(F)F)C(F)(F)F)CCC2N(C)C(=O)c3c(O)c(=O)ccn3N12 (single isomer, unassigned) [Compound 81A, 7-hydroxy-5-methyl-2-(2,3,3,3-tetrafluoro-2-(trifluoromethyl)propyl)-1-(o-tolyl)-1,2,3,4,4a,5-hexahydrodipyrido[1,2-b:2′,1′-f][1,2,4]triazine-6,8-dione] | 19.1 nM |
| Cc1ccccc1C1C(CC(F)(C(F)(F)F)C(F)(F)F)CCC2N(C)C(=O)c3c(O)c(=O)ccn3N12 (single isomer, unassigned) [Compound 81B, 7-hydroxy-5-methyl-2-(2,3,3,3-tetrafluoro-2-(trifluoromethyl)propyl)-1-(o-tolyl)-1,2,3,4,4a,5-hexahydrodipyrido[1,2-b:2′,1′-f][1,2,4]triazine-6,8-dione] | 744 nM |
| CCN1C(=O)c2c(O)c(=O)ccn2N2C(c3ccccc3)C(CC(F)(F)F)CCC12C (single isomer, unassigned) [Compound 82A, 5-ethyl-7-hydroxy-4a-methyl-1-phenyl-2-(2,2,2-trifluoroethyl)-1,2,3,4,4a,5-hexahydrodipyrido[1,2-b:2′,1′-f][1,2,4]triazine-6,8-dione] | > 810 nM |
| CCN1C(=O)c2c(O)c(=O)ccn2N2C(c3ccccc3)C(CC(F)(F)F)CCC12C (single isomer, unassigned) [Compound 82B, 5-ethyl-7-hydroxy-4a-methyl-1-phenyl-2-(2,2,2-trifluoroethyl)-1,2,3,4,4a,5-hexahydrodipyrido[1,2-b:2′,1′-f][1,2,4]triazine-6,8-dione] | 2.3 nM |
| CN1C(=O)c2c(O)c(=O)ccn2N2C(c3cccc(Br)c3)C(CC(F)(F)F)CCC12 (single isomer, unassigned) [Compound 83A, 1-(3-bromophenyl)-7-hydroxy-5-methyl-2-(2,2,2-trifluoroethyl)-1,2,3,4,4a,5-hexahydrodipyrido[1,2-b:2′,1′-f][1,2,4]triazine-6,8-dione] | 152 nM |
| CN1C(=O)c2c(O)c(=O)ccn2N2C(c3cccc(Br)c3)C(CC(F)(F)F)CCC12 (single isomer, unassigned) [Compound 83B, 1-(3-bromophenyl)-7-hydroxy-5-methyl-2-(2,2,2-trifluoroethyl)-1,2,3,4,4a,5-hexahydrodipyrido[1,2-b:2′,1′-f][1,2,4]triazine-6,8-dione] | 2.2 nM |
| CN1C(=O)c2c(O)c(=O)ccn2N2C(c3ccccc3)C(C3CCC(F)(F)CC3)CCC12 (single isomer, unassigned) [Compound 84A, 2-(4,4-difluorocyclohexyl)-7-hydroxy-5-methyl-1-phenyl-1,2,3,4,4a,5-hexahydrodipyrido[1,2-b:2′,1′-f][1,2,4]triazine-6,8-dione] | > 810 nM |
| CN1C(=O)c2c(O)c(=O)ccn2N2C(c3ccccc3)C(C3CCC(F)(F)CC3)CCC12 (single isomer, unassigned) [Compound 84B, 2-(4,4-difluorocyclohexyl)-7-hydroxy-5-methyl-1-phenyl-1,2,3,4,4a,5-hexahydrodipyrido[1,2-b:2′,1′-f][1,2,4]triazine-6,8-dione] | 42 nM |
| CN1C(=O)c2c(O)c(=O)ccn2N2C(c3ccccc3)C(c3ccc(F)c(F)c3F)CCC12 (single isomer, unassigned) [Compound 85A, 7-hydroxy-5-methyl-1-phenyl-2-(2,3,4-trifluorophenyl)-1,2,3,4,4a,5-hexahydrodipyrido[1,2-b:2′,1′-f][1,2,4]triazine-6,8-dione] | > 810 nM |
| CN1C(=O)c2c(O)c(=O)ccn2N2C(c3ccccc3)C(c3ccc(F)c(F)c3F)CCC12 (single isomer, unassigned) [Compound 85B, 7-hydroxy-5-methyl-1-phenyl-2-(2,3,4-trifluorophenyl)-1,2,3,4,4a,5-hexahydrodipyrido[1,2-b:2′,1′-f][1,2,4]triazine-6,8-dione] | 9.7 nM |
| CN1C(=O)c2c(O)c(=O)ccn2N2C(c3ccccc3)C(c3ccc(F)c(F)c3F)CCC12 (single isomer, unassigned) [Compound 85C, 7-hydroxy-5-methyl-1-phenyl-2-(2,3,4-trifluorophenyl)-1,2,3,4,4a,5-hexahydrodipyrido[1,2-b:2′,1′-f][1,2,4]triazine-6,8-dione] | > 810 nM |
| CN1C(=O)c2c(O)c(=O)ccn2N2C(c3ccccc3)C(c3ccc(F)c(F)c3F)CCC12 (single isomer, unassigned) [Compound 85D, 7-hydroxy-5-methyl-1-phenyl-2-(2,3,4-trifluorophenyl)-1,2,3,4,4a,5-hexahydrodipyrido[1,2-b:2′,1′-f][1,2,4]triazine-6,8-dione] | 218 nM |
| CN1C(=O)c2c(O)c(=O)ccn2N2C(c3ccccc3)C(c3cc(F)c(F)cc3F)CCC12 (single isomer, unassigned) [Compound 86A, 7-hydroxy-5-methyl-1-phenyl-2-(2,4,5-trifluorophenyl)-1,2,3,4,4a,5-hexahydrodipyrido[1,2-b:2′,1′-f][1,2,4]triazine-6,8-dione] | 4.3 nM |
| CN1C(=O)c2c(O)c(=O)ccn2N2C(c3ccccc3)C(c3cc(F)c(F)cc3F)CCC12 (single isomer, unassigned) [Compound 86B, 7-hydroxy-5-methyl-1-phenyl-2-(2,4,5-trifluorophenyl)-1,2,3,4,4a,5-hexahydrodipyrido[1,2-b:2′,1′-f][1,2,4]triazine-6,8-dione] | > 810 nM |
| CN1C(=O)c2c(O)c(=O)ccn2N2C(c3ccccc3)C(c3cc(F)c(F)cc3F)CCC12 (single isomer, unassigned) [Compound 86C, 7-hydroxy-5-methyl-1-phenyl-2-(2,4,5-trifluorophenyl)-1,2,3,4,4a,5-hexahydrodipyrido[1,2-b:2′,1′-f][1,2,4]triazine-6,8-dione] | 230 nM |
| CN1C(=O)c2c(O)c(=O)ccn2N2C(c3ccccc3)C(c3cc(F)c(F)cc3F)CCC12 (single isomer, unassigned) [Compound 86D, 7-hydroxy-5-methyl-1-phenyl-2-(2,4,5-trifluorophenyl)-1,2,3,4,4a,5-hexahydrodipyrido[1,2-b:2′,1′-f][1,2,4]triazine-6,8-dione] | > 810 nM |
| Cc1ccccc1C1C(CC(F)(F)F)CCC2(C)N(C)C(=O)c3c(O)c(=O)ccn3N12 (single isomer, unassigned) [Compound 87A, 7-hydroxy-4a,5-dimethyl-1-(o-tolyl)-2-(2,2,2-trifluoroethyl)-1,2,3,4,4a,5-hexahydrodipyrido[1,2-b:2′,1′-f][1,2,4]triazine-6,8-dione] | > 810 nM |
| Cc1ccccc1C1C(CC(F)(F)F)CCC2(C)N(C)C(=O)c3c(O)c(=O)ccn3N12 (single isomer, unassigned) [Compound 87B, 7-hydroxy-4a,5-dimethyl-1-(o-tolyl)-2-(2,2,2-trifluoroethyl)-1,2,3,4,4a,5-hexahydrodipyrido[1,2-b:2′,1′-f][1,2,4]triazine-6,8-dione] | 3.6 nM |
| Cc1ccccc1C1C(CC2CC2(F)F)CCC2N(C)C(=O)c3c(O)c(=O)ccn3N12 (single isomer, unassigned) [Compound 88A] | > 810 nM |
| Cc1ccccc1C1C(CC2CC2(F)F)CCC2N(C)C(=O)c3c(O)c(=O)ccn3N12 (single isomer, unassigned) [Compound 88B] | > 810 nM |
| Cc1ccccc1C1C(CC2CC2(F)F)CCC2N(C)C(=O)c3c(O)c(=O)ccn3N12 (single isomer, unassigned) [Compound 88C] | 4 nM |
| Cc1ccccc1C1C(CC2CC2(F)F)CCC2N(C)C(=O)c3c(O)c(=O)ccn3N12 (single isomer, unassigned) [Compound 88D] | 2.9 nM |
| CN1C(=O)c2c(O)c(=O)ccn2N2C(c3ccccc3Br)C(CC(F)(F)F)CCC12 (single isomer, unassigned) [Compound 89A, 1-(2-bromophenyl)-7-hydroxy-5-methyl-2-(2,2,2-trifluoroethyl)-1,2,3,4,4a,5-hexahydrodipyrido[1,2-b:2′,1′-f][1,2,4]triazine-6,8-dione] | 298 nM |
| CN1C(=O)c2c(O)c(=O)ccn2N2C(c3ccccc3Br)C(CC(F)(F)F)CCC12 (single isomer, unassigned) [Compound 89B, 1-(2-bromophenyl)-7-hydroxy-5-methyl-2-(2,2,2-trifluoroethyl)-1,2,3,4,4a,5-hexahydrodipyrido[1,2-b:2′,1′-f][1,2,4]triazine-6,8-dione] | 2.4 nM |
| O=C1c2c(O)c(=O)ccn2N2C(c3ccccc3)C(CC3(C(F)(F)F)CC3)CCC2N1CC1CC1 (single isomer, unassigned) [Compound 90A, 5-(cyclopropylmethyl)-7-hydroxy-1-phenyl-2-((1-(trifluoromethyl)cyclopropyl)methyl)-1,2,3,4,4a,5-hexahydrodipyrido[1,2-b:2′,1′-f][1,2,4]triazine-6,8-dione] | 772 nM |
| O=C1c2c(O)c(=O)ccn2N2C(c3ccccc3)C(CC3(C(F)(F)F)CC3)CCC2N1CC1CC1 (single isomer, unassigned) [Compound 90B, 5-(cyclopropylmethyl)-7-hydroxy-1-phenyl-2-((1-(trifluoromethyl)cyclopropyl)methyl)-1,2,3,4,4a,5-hexahydrodipyrido[1,2-b:2′,1′-f][1,2,4]triazine-6,8-dione] | 29.3 nM |
| Cc1ccccc1C1C(c2ccc(F)c(F)c2)CCC2N(C)C(=O)c3c(O)c(=O)ccn3N12 (single isomer, unassigned) [Compound 91A, 2-(3,4-difluorophenyl)-7-hydroxy-5-methyl-1-(o-tolyl)-1,2,3,4,4a,5-hexahydrodipyrido[1,2-b:2′,1′-f][1,2,4]triazine-6,8-dione] | 485 nM |
| Cc1ccccc1C1C(c2ccc(F)c(F)c2)CCC2N(C)C(=O)c3c(O)c(=O)ccn3N12 (single isomer, unassigned) [Compound 91B, 2-(3,4-difluorophenyl)-7-hydroxy-5-methyl-1-(o-tolyl)-1,2,3,4,4a,5-hexahydrodipyrido[1,2-b:2′,1′-f][1,2,4]triazine-6,8-dione] | 7.3 nM |
| CCCC1CCC2N(C)C(=O)c3c(O)c(=O)ccn3N2C1c1ccccc1C (single isomer, unassigned) [Compound 92A, 7-hydroxy-5-methyl-2-propyl-1-(o-tolyl)-1,2,3,4,4a,5-hexahydrodipyrido[1,2-b:2′,1′-f][1,2,4]triazine-6,8-dione] | 4570 nM |
